Results from patent US20130211079A1, “SUBSTITUTED HETEROCYCLES AS THERAPEUTIC AGENTS FOR TREATING CANCER” (priority 2010, published 2013).

Assays:
Aqueous solubility = format: physicochemical; settings: PB11 compared with PB2
Text: The present inventor rationalized, therefore, that derivatization of an inventive compound to a more hydrophilic drugable molecule, for instance via amidation of a carboxylic acid group or the amidation of an ester group could potentially improve water solubility, binding affinity and bioavailability. See below for synthetic methodology.

p53-hMDM2 complex = molecular target: T1, p53-hMDM2 complex (Homo sapiens, UniProt Q00987); test: 1D AIDA-NMR antagonist-induced dissociation assay; format: binding; settings: p53 (res. 1-321) + Hdm2 (res. 1-125); FIG. 3
T1 construct: complex of p53 (res. 1-321)+Hdm2 (res. 1-125)
T1 sequence (Q00987 1-125, one chain of several): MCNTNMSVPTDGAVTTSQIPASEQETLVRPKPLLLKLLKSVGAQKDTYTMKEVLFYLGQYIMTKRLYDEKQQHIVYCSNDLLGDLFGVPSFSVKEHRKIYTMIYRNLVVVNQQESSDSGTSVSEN

Hdm2 = Hdm2 (Homo sapiens, UniProt Q00987); settings: KD; method for each compound in column 'Method of KD calculation' (bin. titr., AIDA, FP, SPR)
Sequence of Hdm2 (Q00987 1-125): as the sequence (Q00987 1-125, one chain of several) above
Method: The affinities of imidazoline compounds of the present invention towards MDM2 or MDM4 proteins was measured by 2D H^1—N^15 HSQC NMR spectroscopy.
Water suppression was carried out using the WATERGATE sequence. NMR spectra were acquired at 300 K on a Bruker DRX 600 MHz spectrometer equipped with a cryoprobe and the data was processed using the Bruker program Xwin-NMR V. 3.5.
NMR ligand binding experiments were carried out in an analogous way to those previously described. […] For instance, 500 μL of the protein sample, at a concentration of about 0.1 mM, in 10% D2O and a 20 mM stock solution of nutin-3 (purchased from Cayman Chemical, MI) in DMSO-d6 were used in all experiments. […]
For example, 500 μL of the protein sample, at a concentration of about 0.1 mM, in 10% D2O and a 20 mM stock solution of nutin-3 (purchased from Cayman Chemical, MI) in DMSO-d6 were used in all of the experiments. […] The ^1H—^15N—HSQC spectra were recorded using fast HSQC pulse sequence as described by Mori et al., J. Magn. […]
The fluorescence intensities parallel (Intparallel) and perpendicular (Intperpedicular) to the plane of excitation were measured in black 384-well NBS assay plates (Corning) at room temperature (˜20° C.). […]
All fluorescence polarization values were expressed in millipolarization units (mP). […] Plates were read at 30 min after mixing all assay components. […]

Structure (SMILES) | water solubility (Aqueous solubility) | disruption of p53-hMDM2 complex (reappearance of Trp23 peak of p53) (p53-hMDM2 complex) | Binding to Hdm2 (Hdm2)
CC(C)C[C@@]1(C(=O)NCCc2ccncc2)N=CN(CC2CC2)C1c1ccc(Cl)cc1 (mixture of isomers) [PB11, cis-5-(4-chlorophenyl)-1-(cyclopropylmethyl)-4-isobutyl-N-(2-(pyridin-4-yl)ethyl)-4,5-dihydro-1H-imidazole-4-carboxamide] | improved | dissociation of the p53-hMDM2 complex | –
Oc1ccc2ccc(Br)cc2c1C(NCC1CC1)c1ccc(Cl)cc1 (stereo not shown) [PB13, 7-Bromo-1-[(4-chlorophenyl)(cyclopropylmethylamino)methyl]naphthalen-2-ol] | – | – | precipitation
O=C1C(c2ccc(Cl)cc2)C(c2cc3ccc(Cl)cc3[nH]2)N1c1ccc(Cl)cc1 (stereo not shown) [PB15, 4-(6-Chloro-1H-indol-2-yl)-1,3-bis-(4-chlorophenyl)azetidin-2-one] | – | – | precipitation
